In US8697692B2, “Pyrrolo [3,2-c] pyridine-4-one 2-indolinone protein kinase inhibitors” (Shanghai Hengrui Pharmaceutical Co., Ltd., priority 2006, dated 2014):

test system: HUVEC cell; assay: Cell Proliferation Inhibition VEGF-R2 Assay (SRB method); type: cell-based, homo sapient; details: Homo sapiens; HUVEC cells, 72 hours exposure, Sulforhodamine B; read-out: IC50 (VEGFR/HUVEC)
From the text: The following in vitro assay may be used to determine the level of activity and effect of different compounds of the present invention on the proliferation inhibition (cell toxic) of endothelium growth factor receptor (VEGFR) high expressing homo […] cancer cell-HUVEC cell. The cellular assay described here measure the compounds of their anti-angiogenesis and proliferation inhibition activity and effect through […] on the cancer cells in vitro. The effect and activity is represented by the IC50 value that kills the cancer cell. […] The homo […] highly express […] are chosen and seeded to 96-well cell culture plate at a suitable concentration (exp 5000 cells/ml medium). The cells then are cultured in carbon dioxide (CO2) incubator till when they confluence to about 85%. Then, the cell culture medium is replaced by fresh one with tested compounds added in it at serial concentrations (general 6 to 7 concentrations). Then the cells are put back to the culture and cultured for continuous 72 hours. 72 hours later, the cell exposed to compounds and control cell are assayed for their proliferation using Sulforhodamine B (SRB) method. […] Dimethyl sulfoxide (Sinophma chemical reagent company, catalog No. T20050806) • b. HUVEC cells (Purchased from Institute of biochemistry and cell biology) • c. […] Acetic Acid (Sinophma chemical reagent company, Catalog No. T20060508) • l. Trichloroacetic Acid (Sinophma chemical reagent company, Catalog No. T20060305) • m. […] Class II A/B3 Biological safety cabinet (ThermoForma Catalog No. HB0053-03) • o. […] Centrifuge (Fisher Scientific Marathon 8 k, Catalog No. 0027-02) • q. Novastar Plate reader (BMG Labtech, Catalog No. 700-0081) • r. […] Growing seeded 96-well plates at 37° C., 5% CO2, till 85% confluence. • 4. Prepare compounds stock solution, using DMSO solve candidate compounds to a concentration of 20 mM. […] Use cell culture medium (in this case, DMEM/F12+10% FBS) to dilute the compounds solution prepared above. Each DMSO serial concentration compound solution is diluted by 20 times with culture medium by adding 5 μl DMSO compound solution to 95 μl culture medium, then mix well by vortex. […] After HUVEC cell has attached to the dish bottom and confluence about 85%, change the culture medium with fresh DMEM/F12 plus 10% FBS. Each well added 180 μl medium, then add 20 μl medium solution of tested compounds prepared at step 5 to each well. For control group cell, add 20 μl culture medium containing 0.5% pure DMSO. […] Each 96-well plate, we can test 3 compounds with a control cell group. • 7. Put the culture plates back to incubator, culture for 72 hours at 37° C., 5% CO2. • 8. 72 hours later, remove cultures from incubator into sterile work area. • 9. Prepare fixative (50% Trichloroacetic Acid-TCA) by adding reagent grade water to the TCA, fix the cells by gently layering 50 μl of cold TCA solution on top of the growth medium. • 10. Incubate plates for 1 hour at 4° C. and then rinse with water several times to remove TCA, serum proteins, etc. Plates are air dried and stored until use. Bland background optical density is measured in wells incubated with growth medium without cells. • 11. Use 10% acetic acid solution to prepare 0.4% Sulforhodamine B solution. Add 50 μl sulforhodamine B solution to each well of 96-well plates. • 12. Allow cells to stain for 30 minutes. • 13. Prepared the wash solution of […] acetic acid. At the end of the staining period, the stain is removed and the cells rinsed quickly with 1% acetic acid. Repeat until unincorporated dye is removed. Keep wash times to a minimum to reduce desorption of protein-bound dye. After being rinsed, the cultures are air dried until no moisture is visible. • 14. The incorporated dye is then solubilized in a volume of Sulforhodamine B assay Solubilization solution (10 mM Tris) equal to the original volume of culture medium. Allow cultures to stand for 5 minutes at room temperature.

Going from `Cc1c(/C=C2\C(=O)Nc3c(N)cc(F)cc32)[nH]c2c1C(=O)N(CCN1CCOCC1)CC2` [Example 21, 2-(7-Amino-5-fluoro-2-oxo-1,2-dihydro-indol-3-ylidenemethyl)-3-methyl-5-(2-morpholin-4-yl-ethyl)-1,5,6,7-tetrahydro-pyrrolo[3,2-c]pyridin-4-one] to `Cc1c(/C=C2\C(=O)Nc3cc(N)c(F)cc32)[nH]c2c1C(=O)N(CCN1CCOCC1)CC2` [Example 20, 2-(6-Amino-5-fluoro-2-oxo-1,2-dihydro-indol-3-ylidenemethyl)-3-methyl-5-(2-morpholin-4-yl-ethyl)-1,5,6,7-tetrahydro-pyrrolo[3,2-c]pyridin-4-one], the IC50 rises from 2100 nM to 15300 nM (7.3-fold). The first is the more potent here.

First: Cc1c(/C=C2\C(=O)Nc3ccc(Br)cc32)[nH]c2c1C(=O)N(CCN1CCOCC1)CC2 [Example 17, 2-(5-Bromo-2-oxo-1,2-dihydro-indol-3-ylidenemethyl)-3-methyl-5-(2-mopholin-4-yl-ethyl)-1,5,6,7-tetrahydro-pyrrolo[3,2-c]pyridin-4-one]
Second: Cc1c(/C=C2\C(=O)Nc3ccc(NC=O)cc32)[nH]c2c1C(=O)N(CCN1CCOCC1)CC2 [Example 55, N-{3-[3-Methyl-5-(2-morpholin-4-yl-ethyl)-4-oxo-4,5,6,7-tetrahydro-1H-pyrrolo[3,2-c]pyridin-2-ylmethylene]-2-oxo-2,3-dihydro-1H-indol-5-yl}-formamide]
The IC50 of the first is 1.6-fold lower: 2260 nM for the first, 3720 nM for the second.

First: CCN(CC)CCN1CCc2[nH]c(/C=C3\C(=O)Nc4ccc(NS(C)(=O)=O)cc43)c(C)c2C1=O [Example 10, N-{3-[5-(2-Diethylamino-ethyl)-3-methyl-4-oxo-4,5,6,7-tetrahydro-1H-pyrrolo[3,2-c]pyridine-2-ylmethylene]-2-oxo-2,3-dihydro-1H-indol-5-yl}-methanesulfonamide]
Second: CCN(CC)CCN1CCc2[nH]c(/C=C3\C(=O)Nc4ccc(NC(C)=O)cc43)c(C)c2C1=O [Example 11, N-{3-[5-(2-Diethylamino-ethyl)-3-methyl-4-oxo-4,5,6,7-tetrahydro-1H-pyrrolo[3,2-c]pyridine-2-ylmethylene]-2-oxo-2,3-dihydro-1H-indol-5-yl}-acetamide]
The IC50 of the first is 2.1-fold higher: 360 nM for the first, 170 nM for the second.

Compared with `Cc1cccc2c1/C(=C/c1[nH]c3c(c1C)C(=O)N(CCN1CCOCC1)CC3)C(=O)N2` [Example 51, 3-Methyl-2-(4-methyl-2-oxo-1,2-dihydro-indol-3-ylidenemethyl)-5-(2-morpholin-4-yl-ethyl)-1,5,6,7-tetrahydro-pyrrolo[3,2-c]pyridin-4-one], `Cc1c(/C=C2\C(=O)Nc3cccc(-c4cccc(F)c4F)c32)[nH]c2c1C(=O)N(CCN1CCOCC1)CC2` [Example 44, 2-[4-(2,3-Difluoro-phenyl)-2-oxo-1,2-dihydro-indol-3-ylidenemethyl]-3-methyl-5-(2-morpholin-4-yl-ethyl)-1,5,6,7-tetrahydro-pyrrolo[3,2-c]pyridin-4-one] is 1.7-fold higher in IC50: 780 nM for the first, 1320 nM for the second.

Going from `O=C1Nc2ccc(F)cc2/C1=C/c1[nH]c2c(c1-c1ccc(F)cc1)C(=O)NCC2` [Example 46, 2-(5-Fluoro-2-oxo-1,2-dihydro-indol-3-ylidenemethyl)-3-(4-fluoro-phenyl)-1,5,6,7-tetrahydro-pyrrolo[3,2-c]pyridin-4-one] to `CC(=O)Nc1cc2c(cc1F)/C(=C/c1[nH]c3c(c1C)C(=O)N(CCN1CCOCC1)CC3)C(=O)N2` [Example 19, N-{5-Fluoro-3-[3-methyl-5-(2-morpholin-4-yl-ethyl)-4-oxo-4,5,6,7-tetrahydro-1H-pyrrolo[3,2-c]pyridine-2-ylmethylene]-2-oxo-2,3-dihydro-1H-indol-6-yl}-acetamide], the IC50 falls from 10500 nM to 2560 nM (4.1-fold).

test system: A431 cell; assay: Cell Proliferation Inhibition EGFR Assay (SRB method); type: cell-based, homo sapient; details: Homo sapiens, A-431; A431 cells, 72 hours exposure, Sulforhodamine B; read-out: IC50 (A431)
From the text: The following in vitro assay may be used to determine the level of activity and effect of different compounds of the present invention on the proliferation inhibition (cell toxic) of […] growth factor receptor (EGFR) high expressing homo […] cancer cell-A431 cell. The cellular assay described here measure the compounds of their anti-angiogenesis and proliferation inhibition activity and effect through EGFR on the cancer cells in vitro. The effect and activity is represented by the IC50 value that kills the cancer cell. […] The homo […] highly express EGFR are chosen and seeded to 96-well cell culture plate at a suitable concentration (exp 5000 cells/ml medium). The cells then are cultured in carbon dioxide (CO2) incubator till when they confluence to about 85%. Then, the cell culture medium is replaced by fresh one with tested compounds added in it at serial concentrations (general 6 to 7 concentrations). Then the cells are put back to the culture and cultured for continuous 72 hours. 72 hours later, the cell exposed to compounds and control cell are assayed for their proliferation using Sulforhodamine B (SRB) method. Compounds IC50 on tested cells are calculated by the data of inhibition rates of serial concentrations of the tested compounds. • a. Dimethyl sulfoxide (Sinophma chemical reagent company, catalog No. T20050806) • b. A431 cells (Purchased from Institute of biochemistry and cell biology) • c. Falcon 100 mm cell culture plates (Baton Dickison Labware, Baton Dickison and company, • Catalog No. 18677) • d. coming 96-well culture cluster (Corning Incorporated, Catalog No. 3599) • e. Fisher Pipette (Fisher scientific, Catalog No. 03-692-164) • f. DMEM/F12 cell medium (Gibco, Catalog No. 12400-024) • g. Fetal bovine serum, origin from Australia (Gibco, Catalog No. 10099-141) • h. […] Sulforhodamine B (Sigma, Catalog No. 3520-42-1) • k. Acetic Acid (Sinophma chemical reagent company, Catalog No. T20060508) • l. Trichloroacetic Acid (Sinophma chemical reagent company, Catalog No. T20060305) • m. Tris base (Amresco, Catalog No. 0826) • n. Class II A/B3 Biological safety cabinet (ThermoForma Catalog No. HB0053 03) • o. Series II water jacketed CO2 incubator (ThermoForma Model: 3111) • p. Centrifuge (Fisher Scientific Marathon 8 k, Catalog No. 0027-02) • q. Novastar Plate reader (BMG Labtech, Catalog No. 700 0081) • r. Orbital Shaker (Qilinbeier, Catalog No. TS-1) Protocol: […] Growing seeded 96-well plates at 37° C., 5% CO2, till 85% confluence. • 4. Prepare compounds stock solution, using DMSO solve candidate compounds to a concentration of 20 mM. […] Use cell culture medium (in this case, DMEM/F12+10% FBS) to dilute the compounds solution prepared above. Each DMSO serial concentration compound solution is diluted by 20 times with culture medium by adding 5 μl DMSO compound solution to 95 μl culture medium, then mix well by vortex. This promise that the DMSO concentration at that the A431 cell will exposed to will not surpass 0.5%. • 6. […] Each well added 180 μl medium, then add 20 μl medium solution of tested compounds prepared at step 5 to each well. For control group cell, add 20 μl culture medium containing 0.5% pure DMSO. […] Each 96-well plate, we can test 3 compounds with a control cell group. • 7. Put the culture plates back to incubator, culture for 72 hours at 37° C., 5% CO2. • 8. 72 hours later, remove cultures from incubator into sterile work area. • 9. Prepare fixative (50% Trichloroacetic Acid-TCA) by adding reagent grade water to the TCA, fix the cells by gently layering […] of cold TCA solution on top of the growth medium. • 10. Incubate plates for 1 hour at 4° C. and then rinse with water several times to remove TCA, serum proteins, etc. Plates are air dried and stored until use. Bland background optical density is measured in wells incubated with growth medium without cells. • 11. Use 10% acetic acid solution to prepare 0.4% Sulforhodamine B solution. Add 50 μl sulforhodamine B solution to each well of 96-well plates. • 12. […]

`COCC(=O)Nc1cc2c(cc1F)/C(=C/c1[nH]c3c(c1-c1ccc(F)cc1)C(=O)NCC3)C(=O)N2` [Example 67, N-{5-Fluoro-3-[3-(4-fluoro-phenyl)-4-oxo-4,5,6,7-tetrahydro-1H-pyrrolo[3,2-c]pyridin-2-ylmethylene]-2-oxo-2,3-dihydro-1H-indol-6-yl}-2-methoxy-acetamide] and `CCN(CC)CCN1CCc2[nH]c(/C=C3\C(=O)Nc4c(NC(C)=O)cc(F)cc43)c(C)c2C1=O` [Example 6, N-{3-[5-(2-Diethylamino-ethyl)-3-methyl-4-oxo-4,5,6,7-tetrahydro-1H-pyrrolo[3,2-c]pyridine-2-ylmethylene]-5-fluoro-2-oxo-2,3-dihydro-1H-indol-7-yl}-acetamide] are within 1.5-fold of each other in IC50: 2030 nM for the first, 1380 nM for the second.

Compound `Cc1c(/C=C2\C(=O)Nc3ccc(NC=O)cc32)[nH]c2c1C(=O)N(CCN1CCCCC1)CC2` [Example 91, N-{3-[3-Methyl-4-oxo-5-(2-piperidin-1-yl-ethyl)-4,5,6,7-tetrahydro-1H-pyrrolo[3,2-c]pyridin-2-ylmethylene]-2-oxo-2,3-dihydro-1H-indol-5-yl}-formamide] has an IC50 of 120 nM.
